Assay [1] concerns Propionibacterium acnes and Staphylococcus epidermidis. The settings on record: aerobic and anaerobic organisms; cited from earlier work.
The subject of assay [2] is dermatophytes, yeasts, moulds and other fungi. The settings on record: cited from earlier work.
Assay [3] relates to Gram-positive and Gram-negative bacteria. The settings on record: e.g., Escherichia coli, Proteus mirabilis, Pseudomonas aeruginosa, Staphylococcus and Streptococcus species; cited from earlier work.
In assay [4] the test system is Escherichia coli ATCC 25922. As to the kind of experiment: OD (600 nm) of incubated bacterial samples under simulated GI conditions (bile, mucin, pH, yeast), 4 hour incubation. The format is cell-based. The settings on record: Yeast+Amphotericin B. As to the method:
(§1) Experiments were performed in order to simulate an ingestible device that contains sterile media that is inoculated with a sample of fluid from the GI tract and incubated in transit. […] The samples were also incubated under conditions of shear forces and temperature that simulate conditions of an ingestible device in transit within the GI tract.
(§2) The assay utilized 50 μL, sample volumes, under shear (110 rpm) and at body temperature (37° C.) over a 4 hour incubation period to simulate transit of an ingestible device within the GI tract. […] Experiments were conducted in quintuplicate.

In assay [5] the test system is Staphylococcus epidermidis ATCC 12228. The description is as above. Format: cell-based. The settings on record: Yeast Amphotericin B. As to the method: as §1, §2
In the next assay the test system is C. albicans. Description: Fungal contamination of incubated OD assay, with or without anti-fungal recovery media. The format is cell-based. The settings on record: TSB containing 2.5 mg/L Amphotericin B.
The conditions of assay [6]: numerous murine models; cited from earlier work.
A further assay addresses human IL-6 (Homo sapiens, UniProt P05231). The settings on record: cited from earlier work.

Sequence of human IL-6 (P05231 30-212): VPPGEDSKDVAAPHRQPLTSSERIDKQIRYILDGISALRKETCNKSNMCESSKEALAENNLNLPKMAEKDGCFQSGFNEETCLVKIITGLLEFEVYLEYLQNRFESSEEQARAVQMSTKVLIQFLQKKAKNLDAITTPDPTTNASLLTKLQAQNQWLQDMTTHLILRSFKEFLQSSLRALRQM

`O=C(O)CCCCCCCC(=O)O` [Azelaic acid]: in assay [1], the antibacterial effects entry is recorded as “antibacterial effects”.
Consider `Cc1cc(C2CCCCC2)n(O)c(=O)c1` [Ciclopirox], for which the antifungal activity entry in assay [2] was “fungicidal, fungistatic and sporicidal activity”. The activity against bacteria entry in assay [3] is on record as “effective”.
As to `C[C@@H]1[C@H](O)[C@@H](C)/C=C/C=C/C=C/C=C/C=C/C=C/C=C/[C@H](O[C@@H]2O[C@H](C)[C@@H](O)[C@H](N)[C@@H]2O)C[C@@H]2O[C@](O)(C[C@@H](O)C[C@@H](O)[C@H](O)CC[C@@H](O)C[C@@H](O)CC(=O)O[C@H]1C)C[C@H](O)[C@H]2C(=O)O` [amphotericin B, Amphotericin B], the “OD (600 nm) Mean” value in assay [4] (EC 10^3 initial concentration) was 0.0410; in assay [4] (EC 10^4 initial concentration) it was 0.0432; in assay [4] (EC 10^5 initial concentration), 0.0562; in assay [4] (EC 10^6 initial concentration) it was 0.1038; in assay [4] (EC 10^7 initial concentration), 0.1274; in assay [5] (SE 10^3 initial concentration) it was 0.0425. For the same compound, the “OD (600 nm) Mean” value is reported as 0.0437 in assay [5] (SE 10^4 initial concentration), 0.0454 in assay [5] (SE 10^5 initial concentration), 0.0611 in assay [5] (SE 10^6 initial concentration) and 0.0971 in assay [5] (SE 10^7 initial concentration). Moreover, the “Effect on background fungal growth (plate counts and optical density)” value in the assay with C. albicans is reported as “reduced the background fungal growth”.
For “L-glutamic acid polymer with L-alanine, L-lysine and L-tyrosine, acetate (salt) [Glatiramer acetate]”, the “inflammation and pathological manifestations of IBD” value in assay [6] was “reduce inflammation and ameliorate the pathological manifestations”.
In the case of “siltuximab: chimeric, human-murine, immunoglobulin (Ig) Gκ mAb that binds and neutralizes human IL-6”, the “binding and neutralization of human IL-6” value with human IL-6 is “high affinity and specificity”.

Source of the values: patent US11547301B2, “Methods for collecting and testing bacteria containing samples from within the gastrointestinal tract” (priority 2016, dated 2023).
